Reference: patent US20150259371A1, “METHODS AND COMPOUNDS FOR INHIBITING GLYCOSYLTRANSFERASES” (SIMON FRASER UNIVERSITY, priority 2010, published 2015)
pEC50: −log10 of the molar value. “Also recorded” adds a separate entry of the source.

Columns and labels:
OGT = assay: Western blot of OGT levels in treated COS-7 cells; type: cell-based, African green monkey; conditions: 50 μM, 24 h
Procedure: (§1) Westernlectin blots: Samples were run on 10% SDS polyacrylamide gels and transferred onto nitrocellulose membranes (Biorad). Membranes were blocked for 1 h in PBS containing 0.1% Tween-20 (PBS-T) containing 1% (unless otherwise stated) bovine serum albumin (BSA), and probed with the appropriate primary antibody or lectin in 1% BSA in PBS-T overnight at 4° C. Blots were washed for 1 hr with PBS-T, and blocked for a further 30 min with 1% BSA in PBS-T at room temperature. They were then probed with the appropriate horseradish peroxidise (HRP)-conjugated secondary antibodyprobe in 1% BSA in PBS-T at room temperature for 1 h, followed by washing in PBS-T for 1 h. Blots were developed with SuperSignal West Pico Chemiluminescent Substrate (Pierce) and exposed to CL-XPosure film (Pierce). Densitometry was performed using ImageQuant 5.2 (Molecular Dynamics), and fits to the data were made using GRAFIT^41.
(§2) Antibodieslectins: O-GlcNAc levels were assessed primarily using CTD110.6 (Covance), but RL2 (Abcam) and HGAC85 (Abcam) were also tested. Actin was probed using JLA20 (Developmental Studies Hybridoma Bank). OGA levels were assessed using a polyclonal anti-OGA antibody which was a kind gift from Dr. Gerald Hart and OGT levels using H-300 (Santa Cruz Biotechnology). nup62 was probed using mAb 414 (Covance). […]

[1] = tested on: O-GlcNAc levels in COS-7 cells; assay: Western blot of O-GlcNAc levels (CTD110.6) in treated COS-7 cells; type: cell-based, African green monkey
Procedure: Cell culture: Cells were grown in an incubator at 37° C. and 5% CO2 atmosphere. Media and serum were purchased from Invitrogen. COS-7 cells were cultured in Dulbecco's modified Eagle's medium (DMEM) with 5% fetal bovine serum (FBS), and were typically 80-100% confluent prior to experimentation. HepG2, SK-N-SH, and EMEG32^−/− cells were cultured in Dulbecco's modified Eagle's medium (DMEM) with 5% fetal bovine serum (FBS), CHO cells in DMEMF-12 with 5% FBS and PC12 cells in DMEM with 5% FBS and 5% horse serum. Prior to experimentation, PC12 cells were plated at a density of 3-4×10^5 cells10 cm plate, which had been pre-treated with 5 μgcm^2 rat tail collagen (BD Biosciences). Cells were differentiated in DMEM containing 1% horse serum, in the presence of 2.5S mouse nerve growth factor (Chemicon) at a final concentration of 25 ng mL^−1, for 4-5 days prior to treatment. Other cell lines were 80-100% confluent prior to treatment. Following treatment with (Ac-)5SGlcNAc, using various conditions, cells were washed gently with PBS, lysed in SDS loading buffer and boiled for 10 minutes. Mouse hybridoma cells (obtained from the Developmental Studies Hybridoma Bank; antibody E7 for (:1-tubulin) were cultured in RPMI40 with 10% FBS. Prior to treatment with Ac-5SGlcNAc, hybridoma cells were cultured for 2 days in RPMI40 with 5% FBS, and during treatment in RPMI40 with no serum. Cells were collected, centrifuged (800 x g, 5 min) and the supernatant removed. Cells were washed with PBS, centrifuged, the pellet resuspended in SDS loading buffer and boiled. The supernatant after centrifugation, which contained the IgG antibody produced by the cells, was used for immunoprecipitation (see below for details).
as §1
Antibodieslectins: O-GlcNAc levels were assessed primarily using CTD110.6 (Covance), but RL2 (Abcam) and HGAC85 (Abcam) were also tested. Actin was probed using JLA20 (Developmental Studies Hybridoma Bank). OGA levels were assessed using a polyclonal anti-OGA antibody which was a kind gift from Dr. Gerald Hart and OGT levels using H-300 (Santa Cruz Biotechnology). nup62 was probed using mAb 414 (Covance). Secondary antibodies employed (HRP-conjugated goat anti-mouse IgM, goat anti-mouse IgG, goat anti-chicken IgY and goat anti-rabbit IgG) were obtained from Santa Cruz Biotechnology. Biotinylated-ConA, PHA-L, SNA and MAA were purchased from EY Laboratories, and biotinylated-GNA from Vector Laboratories. HRP-conjugated streptavidin (Pierce) was used as a probe for the biotinylated lectins.
Analogues (9, 10, 17-41) were tested in COS-7 cells, dosed at a final concentration of 50 μM in DMSO for 24 h. Following treatment, cells were washed with PBS, harvested into SDS-PAGE loading buffer and analyzed by western blot using standard procedures; blots were probed with the anti-O-GlcNAc antibody (CTD 110.6).

OGA = assay: Western blot of OGA levels in treated COS-7 cells; type: cell-based, African green monkey; conditions: 50 μM, 24 h
Procedure: as §1, §2

[2] = tested on: EMEG32 heterozygous mouse embryonic fibroblast cells; assay: Cell proliferation growth curves over 5 days and western blot, EMEG32 heterozygous fibroblasts; type: cell-based; conditions: 50 μM, 5 days
Procedure: (A) Cell proliferation curves over the course of 5 days for CHO cells following no (circles), 50 μM Ac-GlcNAc (squares) or 50 μM Ac-5SGlcNAc (triangles) treatment. The error bars indicate the deviation from the mean for triplicate measurements. […] Upper panel, probed with anti-O-GlcNAc antibody (CTD110.6); lower panel, probed with anti-actin antibody. (B) Cell proliferation curves over the course of 5 days for EMEG heterozygous mouse embryonic fibroblast cells following no (circles), 50 μM Ac-GlcNAc (squares) or 50 μM Ac-5SGlcNAc (triangles) treatment. The error bars indicate the deviation from the mean for triplicate measurements. […] Upper panel, probed with anti-O-GlcNAc antibody (CTD110.6); lower panel, probed with anti-actin antibody. (C) Western blots of CHO cell lysates following no (C) or Ac-5SGlcNAc administration at 50 μM for 4 days. Probed with (from top to bottom) anti-Spl antibody, anti O-GlcNAc (CTD110.6) antibody and anti-actin antibody. Full blot of the anti-Sp 1 is shown in panel (d). (D) Western blots of CHO cell lysates following no (C) or Ac-5SGlcNAc administration at 50 μM for 4 days. The full blot probed with anti-Spl antibody is shown. (E) Western blots of COS-7 cell lysates following no (C) or 50 μM Ac-5SGlcNAc treatment for 24 h. Following treatment, the media was replaced with no inhibitor, and cells were harvested at the time points indicated (between 0 and 24 h). Upper panel, probed with anti-O-GlcNAc antibody (CTD110.6); lower panel, probed with anti-actin antibody.
Cellular responses to Ac-5SGlcNAc (9) treatment and consequent decreases in O-GlcNAc levels were evaluated. […] We quantitatively evaluated cell proliferation and established growth curves over the course of 5 days in both CHO and EMEG32 heterozygous mouse embryonic fibroblast cells treated with 50 μM Ac-5SGlcNAc (9), 50 μM Ac-GlcNAc (G), or vehicle (FIGS. 5A-B).

SMILES: CC(=O)NC1C(OC(C)=O)SC(COC(C)=O)C(OC(C)=O)C1OC(C)=O [Compound 9, N-Acetyl-1,3,4,6-tetra-O-acetyl-α-D-5-thio-glucosamine]
- OGT levels (OGT): increase in OGT levels
- O-GlcNAc levels on dosing for 5 days ([1]; 50 μM, 5 days): O-GlcNAc levels dropped in the first day and remained low
- O-GlcNAc levels, time course ([1]; 50 μM, hours, listed as Ac-5SGlcNAc): almost no O-GlcNAc being detectable after 24 hours; also recorded: O-GlcNAc levels diminish to a low level by 24 h
- effect on O-GlcNAc levels, dose response ([1]; 24 hours): decreased O-GlcNAc levels in a dose-dependent fashion
- pEC50 ([1]; Chlorocebus sabaeus, 24 h, densitometry of western blot, read-out: EC50 for reduction of O-GlcNAc levels): 5.30
- time for O-GlcNAc to return to basal levels after change to media without compound ([1]; after 50 μM for 24 h): ≤ 24 h
- OGA levels (OGA): compensatory decrease in OGA levels
- growth rate ([2]; EMEG32 heterozygotes): indistinguishable but were both lower than vehicle treated cells
- O-GlcNAc levels at last time point of growth curve ([2]; EMEG heterozygous cells): O-GlcNAc levels are still significantly decreased in cells treated with Ac-5SGlcNAc
